# Measured values as given in PMC6287599, “2,6-Bis(2-Benzimidazolyl)Pyridine (BBP) Is a Potent and Selective Inhibitor of Small Conductance Calcium-Activated Potassium (SK) Channels” (Frontiers in Pharmacology, 2018).
# “Also recorded” adds a separate entry of the source.
# Columns and labels:
# Type in all cases: cell-based
# Details in all cases: BBP 10 μM, TEVC, n = 5
# [1] = biological target: T1, Kv4.3/KCHIP2 (Homo sapiens, UniProt Q9UK17); assay: Two-electrode voltage clamp in Xenopus laevis oocytes, Kv4.3/KCHIP2
# T1 sequence (Q9UK17 1-655): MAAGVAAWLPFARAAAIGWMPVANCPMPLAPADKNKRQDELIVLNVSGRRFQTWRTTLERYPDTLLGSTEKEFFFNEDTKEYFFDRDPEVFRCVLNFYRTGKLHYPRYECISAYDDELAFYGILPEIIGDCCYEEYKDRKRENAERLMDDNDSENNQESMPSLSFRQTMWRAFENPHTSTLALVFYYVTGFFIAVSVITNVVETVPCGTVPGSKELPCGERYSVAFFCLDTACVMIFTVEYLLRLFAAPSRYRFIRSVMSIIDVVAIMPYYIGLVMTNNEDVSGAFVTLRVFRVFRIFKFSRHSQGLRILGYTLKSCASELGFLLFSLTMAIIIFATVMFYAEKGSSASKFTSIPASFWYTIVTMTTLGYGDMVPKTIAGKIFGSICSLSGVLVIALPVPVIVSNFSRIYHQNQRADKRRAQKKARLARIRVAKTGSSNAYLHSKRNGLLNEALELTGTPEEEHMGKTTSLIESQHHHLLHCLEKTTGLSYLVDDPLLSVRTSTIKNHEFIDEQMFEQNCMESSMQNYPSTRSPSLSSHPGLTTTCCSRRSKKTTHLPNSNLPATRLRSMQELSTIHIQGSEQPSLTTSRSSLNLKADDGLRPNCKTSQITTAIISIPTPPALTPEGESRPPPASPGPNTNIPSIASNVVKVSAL
# T1 sequence (Q9NS61 1-270 partner): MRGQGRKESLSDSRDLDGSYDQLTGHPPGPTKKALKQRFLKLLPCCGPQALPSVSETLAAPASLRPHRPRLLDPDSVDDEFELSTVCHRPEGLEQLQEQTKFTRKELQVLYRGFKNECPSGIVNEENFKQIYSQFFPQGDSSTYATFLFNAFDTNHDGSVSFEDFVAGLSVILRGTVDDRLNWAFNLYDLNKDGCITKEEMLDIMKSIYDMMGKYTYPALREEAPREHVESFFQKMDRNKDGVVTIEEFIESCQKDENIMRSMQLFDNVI
# Method: (§1) cRNA was prepared from linearized plasmids using the mMESSAGE mMACHINE T7 kit (Ambion, USA) and quantified by UV spectroscopy (NanoDrop, Thermo Scientific, Wilmington, USA). Xenopus laevis oocytes were acquired from EcoCyte Bioscience (Castrop-Rauxel, Germany). Oocytes were injected with 50 nL cRNA and currents were recorded after 2 days of incubation at 19°C. Currents were recorded at a sampling rate of 10 kHz using a TEVC amplifier (Dagan CA-1B; IL, USA), and borosilicate glass recording electrodes (Module Ohm, Herlev, Denmark), made with a DMZ Universal Puller (Zeitz Instruments, Martinsried, Germany) with a resistance of 0.5–1 MΩ when filled with 2 M KCl. Oocytes were superfused with Kulori (pH 7.4) solution containing NaCl 90 mM, KCl 4 mM, MgCl2 1 mM, CaCl2 1 mM, 4-(2-hydroxyethyl)-1-piperazineethanesulfonic acid 5 mM, and currents were elicited with the voltage protocols previously indicated (Skarsfeldt et al., [2016]), from a holding potential of −80 mV. […]
# (§2) To assess the effect of BBP on other calcium-activated potassium channels (hBK, hSK3 WT, rSK3 H491N, and hIK), each individual current was first normalized to its cell size using membrane's capacitance (pA/pF) before statistical analysis. […] Statistical significance between saline and the effect of both BBP and the corresponding reference compound was determined for each channel using one-way ANOVA analysis. […]
# [2] = biological target: Kv1.5 (Homo sapiens, UniProt P22460); assay: Two-electrode voltage clamp in Xenopus laevis oocytes, Kv1.5
# Kv1.5, sequence (P22460 whole entry): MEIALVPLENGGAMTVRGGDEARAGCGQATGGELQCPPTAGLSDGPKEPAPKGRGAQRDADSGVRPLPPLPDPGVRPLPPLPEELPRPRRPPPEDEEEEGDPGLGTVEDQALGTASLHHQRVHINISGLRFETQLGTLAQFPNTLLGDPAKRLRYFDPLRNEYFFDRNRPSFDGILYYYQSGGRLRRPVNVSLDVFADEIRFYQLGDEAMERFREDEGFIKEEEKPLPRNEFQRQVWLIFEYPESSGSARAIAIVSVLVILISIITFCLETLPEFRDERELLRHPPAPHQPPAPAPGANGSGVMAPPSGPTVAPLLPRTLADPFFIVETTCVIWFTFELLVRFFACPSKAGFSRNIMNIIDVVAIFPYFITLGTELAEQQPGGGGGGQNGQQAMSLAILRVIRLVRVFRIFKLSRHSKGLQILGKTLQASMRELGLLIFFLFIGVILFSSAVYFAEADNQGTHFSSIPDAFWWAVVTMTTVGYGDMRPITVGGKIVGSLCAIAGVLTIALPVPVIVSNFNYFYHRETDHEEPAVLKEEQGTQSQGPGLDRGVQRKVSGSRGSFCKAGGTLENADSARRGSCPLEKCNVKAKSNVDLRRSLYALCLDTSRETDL
# Method: as §1, §2
# [3] = biological target: Kv7.1/KCNE1 (Homo sapiens, UniProt P51787); assay: Two-electrode voltage clamp in Xenopus laevis oocytes, Kv7.1/KCNE1
# Method: as §1, §2
smiles,measurement,setting,value
"c1cc(-c2nc3ccccc3[nH]2)nc(-c2nc3ccccc3[nH]2)c1 [BBP, 2,6-Bis(2-benzimidazolyl)pyridine]",Effect on Kv4.3/KCHIP2 current,[1],did not have any effect; also recorded: did not significantly affect
same,Effect on Kv1.5 current,[2],did not have any effect; also recorded: did not significantly affect
same,Effect on Kv7.1/KCNE1 current,[3],did not have any effect; also recorded: did not significantly affect
